Test results as given in ChEMBL document CHEMBL4000244, “Probing A-form DNA: A fluorescent aminosugar probe and dual recognition by anthraquinone-neomycin conjugates” (Bioorg Med Chem, 2017).
Activity calls are given as the source filed them. The rule behind the calls is not given here.

Legend:
[1] = Binding affinity to d(G4C4)2 DNA major groove assessed as stabilization of A-from DNA conformation by measuring induction of sharper band at 265 nanometer at drug:DNA molar ratio of 1:1 after 30 mins by CD spectroscopic method
[2] = Binding affinity to 5'-CCCCCCCC-3' DNA hairpin assessed as change in fluorescence intensity at 1 uM after 45 mins by fluorescence quenching analysis relative to control
[3] = Binding affinity to 5'-GGGCCCGG-3' DNA hairpin assessed as change in fluorescence intensity at 1 uM after 45 mins by fluorescence quenching analysis relative to control
[4] = Binding affinity to 5'-GCCCCGGC-3' DNA hairpin assessed as change in fluorescence intensity at 1 uM after 45 mins by fluorescence quenching analysis relative to control
[5] = Binding affinity to 5'-GGGGGCCC-3' DNA hairpin assessed as change in fluorescence intensity at 1 uM after 45 mins by fluorescence quenching analysis relative to control
[6] = Binding affinity to 5'-CCGGGGCC-3' DNA hairpin assessed as change in fluorescence intensity at 1 uM after 45 mins by fluorescence quenching analysis relative to control
[7] = Binding affinity to 5'-CCCCGGCC-3' DNA hairpin assessed as change in fluorescence intensity at 1 uM after 45 mins by fluorescence quenching analysis relative to control
[8] = Binding affinity to 5'-GGCCGCCC-3' DNA hairpin assessed as change in fluorescence intensity at 1 uM after 45 mins by fluorescence quenching analysis relative to control
[9] = Binding affinity to 5'-CGCCCCGC-3' DNA hairpin assessed as change in fluorescence intensity at 1 uM after 45 mins by fluorescence quenching analysis relative to control
[10] = Binding affinity to 5'-GGGCCGCG-3' DNA hairpin assessed as change in fluorescence intensity at 1 uM after 45 mins by fluorescence quenching analysis relative to control
[11] = Binding affinity to 5'-CCCGGGCC-3' DNA hairpin assessed as change in fluorescence intensity at 1 uM after 45 mins by fluorescence quenching analysis relative to control
[12] = Binding affinity to 5'-CCGGGCCG-3' DNA hairpin assessed as change in fluorescence intensity at 1 uM after 45 mins by fluorescence quenching analysis relative to control
[13] = Binding affinity to 5'-CGGGGCCC-3' DNA hairpin assessed as change in fluorescence intensity at 1 uM after 45 mins by fluorescence quenching analysis relative to control
[14] = Binding affinity to 5'-GCCCGCGC-3' DNA hairpin assessed as change in fluorescence intensity at 1 uM after 45 mins by fluorescence quenching analysis relative to control
[15] = Binding affinity to 5'-GCCCGGGC-3' DNA hairpin assessed as change in fluorescence intensity at 1 uM after 45 mins by fluorescence quenching analysis relative to control
[16] = Binding affinity to 5'-CCCCGGGC-3' DNA hairpin assessed as change in fluorescence intensity at 1 uM after 45 mins by fluorescence quenching analysis relative to control
[17] = Binding affinity to 5'-GGGGCGGG-3' DNA hairpin assessed as change in fluorescence intensity at 1 uM after 45 mins by fluorescence quenching analysis relative to control
[18] = Binding affinity to 5'-CCGCCGCG-3' DNA hairpin assessed as change in fluorescence intensity at 1 uM after 45 mins by fluorescence quenching analysis relative to control
[19] = Binding affinity to 5'-GGGCGGGC-3' DNA hairpin assessed as change in fluorescence intensity at 1 uM after 45 mins by fluorescence quenching analysis relative to control
[20] = Binding affinity to 5'-CGCCGCCC-3' DNA hairpin assessed as change in fluorescence intensity at 1 uM after 45 mins by fluorescence quenching analysis relative to control
[21] = Binding affinity to 5'-GCGCGCGC-3' DNA hairpin assessed as change in fluorescence intensity at 1 uM after 45 mins by fluorescence quenching analysis relative to control
[22] = Binding affinity to 5'-CCGGCGCG-3' DNA hairpin assessed as change in fluorescence intensity at 1 uM after 45 mins by fluorescence quenching analysis relative to control
[23] = Binding affinity to 5'-CCCCGCCC-3' DNA hairpin assessed as change in fluorescence intensity at 1 uM after 45 mins by fluorescence quenching analysis relative to control
[24] = Binding affinity to 5'-CGGCGGCG-3' DNA hairpin assessed as change in fluorescence intensity at 1 uM after 45 mins by fluorescence quenching analysis relative to control
[25] = Binding affinity to 5'-CGCGCCCG-3' DNA hairpin assessed as change in fluorescence intensity at 1 uM after 45 mins by fluorescence quenching analysis relative to control
[26] = Binding affinity to 5'-CCGGGCGG-3' DNA hairpin assessed as change in fluorescence intensity at 1 uM after 45 mins by fluorescence quenching analysis relative to control
[27] = Binding affinity to 5'-GCCCGCGG-3' DNA hairpin assessed as change in fluorescence intensity at 1 uM after 45 mins by fluorescence quenching analysis relative to control
[28] = Binding affinity to 5'-GCGCCGCC-3' DNA hairpin assessed as change in fluorescence intensity at 1 uM after 45 mins by fluorescence quenching analysis relative to control
[29] = Binding affinity to 5'-GGCGGCGC-3' DNA hairpin assessed as change in fluorescence intensity at 1 uM after 45 mins by fluorescence quenching analysis relative to control
[30] = Binding affinity to 5'-CCCGCCGG-3' DNA hairpin assessed as change in fluorescence intensity at 1 uM after 45 mins by fluorescence quenching analysis relative to control
[31] = Binding affinity to 5'-CGCGCCGC-3' DNA hairpin assessed as change in fluorescence intensity at 1 uM after 45 mins by fluorescence quenching analysis relative to control
[32] = Binding affinity to 5'-GGGCGCGG-3' DNA hairpin assessed as change in fluorescence intensity at 1 uM after 45 mins by fluorescence quenching analysis relative to control
[33] = Binding affinity to 5'-CGGGCGCC-3' DNA hairpin assessed as change in fluorescence intensity at 1 uM after 45 mins by fluorescence quenching analysis relative to control
[34] = Binding affinity to 5'-GCGGCCCG-3' DNA hairpin assessed as change in fluorescence intensity at 1 uM after 45 mins by fluorescence quenching analysis relative to control
[35] = Binding affinity to 5'-GGCGCGCG-3' DNA hairpin assessed as change in fluorescence intensity at 1 uM after 45 mins by fluorescence quenching analysis relative to control
[36] = Binding affinity to 5'-GGGCGCCC-3' DNA hairpin assessed as change in fluorescence intensity at 1 uM after 45 mins by fluorescence quenching analysis relative to control

## NCC1O[C@H](O[C@H]2[C@@H](O)[C@H](O[C@@H]3[C@@H](O)[C@H](N)C[C@H](N)[C@H]3O[C@H]3O[C@H](CN)[C@@H](O)[C@H](O)[C@H]3N)O[C@@H]2CSCCNC(=O)CCSCC(=O)Nc2ccc(-c3c4ccc(=O)cc-4oc4cc(O)ccc34)c(C(=O)O)c2)[C@H](N)[C@@H](O)[C@@H]1O (stereo partly specified)
[1]
  Activity: Active
[2]
  Activity: 15%
[3]
  Activity: 25.4%
[4]
  Activity: 28.6%
[5]
  Activity: 34.4%
[6]
  Activity: 37.6%
[7]
  Activity: 37.6%
[8]
  Activity: 37.9%
[9]
  Activity: 38%
[10]
  Activity: 39.6%
[11]
  Activity: 40.2%
[12]
  Activity: 40.2%
[13]
  Activity: 40.4%
[14]
  Activity: 40.4%
[15]
  Activity: 41.1%
[16]
  Activity: 43%
[17]
  Activity: 43.6%
[18]
  Activity: 44%
[19]
  Activity: 44.1%
[20]
  Activity: 44.6%
[21]
  Activity: 45.2%
[22]
  Activity: 45.4%
[23]
  Activity: 45.7%
[24]
  Activity: 46.5%
[25]
  Activity: 48.8%
[26]
  Activity: 50.1%
[27]
  Activity: 50.3%
[28]
  Activity: 50.4%
[29]
  Activity: 50.6%
[30]
  Activity: 50.9%
[31]
  Activity: 50.9%
[32]
  Activity: 51.5%
[33]
  Activity: 52.5%
[34]
  Activity: 52.5%
[35]
  Activity: 57.1%
[36]
  Activity: 65.9%
